In ChEMBL document CHEMBL1201862, “PubChem BioAssay data set” (2004):
Active and inactive are the calls of the source.

What was measured:
Cytochrome P450 2C19 = Cytochrome P450 2C19 (Homo sapiens, UniProt P33261); test: Cytochrome panel assay with activity outcomes. Panel member name: p450-cyp2c19 Compounds with AC50 equal or less than 10 uM are considered active; assay type: functional
Cytochrome P450 1A2 = molecular target: T1, Cytochrome P450 1A2 (Homo sapiens, UniProt P05177);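 also: PubChem cytochrome P450 panel assay, CYP1A2 panel member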
T1 sequence (P05177 whole entry): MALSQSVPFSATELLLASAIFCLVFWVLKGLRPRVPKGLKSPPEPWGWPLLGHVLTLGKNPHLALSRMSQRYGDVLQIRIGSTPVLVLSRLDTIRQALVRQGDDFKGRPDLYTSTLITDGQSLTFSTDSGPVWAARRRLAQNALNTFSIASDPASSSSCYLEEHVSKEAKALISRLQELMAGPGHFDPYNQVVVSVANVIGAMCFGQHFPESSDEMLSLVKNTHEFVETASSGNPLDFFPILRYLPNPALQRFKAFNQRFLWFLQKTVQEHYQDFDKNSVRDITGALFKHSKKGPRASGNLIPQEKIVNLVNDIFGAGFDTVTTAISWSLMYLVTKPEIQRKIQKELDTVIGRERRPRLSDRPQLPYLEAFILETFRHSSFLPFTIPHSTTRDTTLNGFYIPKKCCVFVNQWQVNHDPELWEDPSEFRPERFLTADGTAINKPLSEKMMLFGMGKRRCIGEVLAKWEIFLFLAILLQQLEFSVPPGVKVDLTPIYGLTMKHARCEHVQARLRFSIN

Cytochrome P450 2C9 = Cytochrome P450 2C9 (Homo sapiens, UniProt P11712)
Chain of Cytochrome P450 2C9 (P11712 whole entry): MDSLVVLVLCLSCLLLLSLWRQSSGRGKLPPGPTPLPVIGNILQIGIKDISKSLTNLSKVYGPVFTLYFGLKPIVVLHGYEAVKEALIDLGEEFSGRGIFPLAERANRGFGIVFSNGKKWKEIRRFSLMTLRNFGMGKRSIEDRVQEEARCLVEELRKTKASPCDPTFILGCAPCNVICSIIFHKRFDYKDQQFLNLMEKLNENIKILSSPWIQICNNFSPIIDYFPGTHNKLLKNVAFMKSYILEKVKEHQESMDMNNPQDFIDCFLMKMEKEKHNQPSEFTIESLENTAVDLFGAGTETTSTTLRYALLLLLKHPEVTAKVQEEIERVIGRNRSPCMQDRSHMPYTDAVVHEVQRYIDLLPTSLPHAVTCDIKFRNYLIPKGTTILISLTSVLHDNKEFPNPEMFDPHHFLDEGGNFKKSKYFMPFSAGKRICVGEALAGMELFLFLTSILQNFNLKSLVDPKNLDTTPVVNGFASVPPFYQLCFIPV

Cytochrome P450 2D6 = Cytochrome P450 2D6 (Homo sapiens, UniProt P10635);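 also: CYP2D6 member of a cytochrome P450 panel assay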
Chain of Cytochrome P450 2D6 (P10635 whole entry): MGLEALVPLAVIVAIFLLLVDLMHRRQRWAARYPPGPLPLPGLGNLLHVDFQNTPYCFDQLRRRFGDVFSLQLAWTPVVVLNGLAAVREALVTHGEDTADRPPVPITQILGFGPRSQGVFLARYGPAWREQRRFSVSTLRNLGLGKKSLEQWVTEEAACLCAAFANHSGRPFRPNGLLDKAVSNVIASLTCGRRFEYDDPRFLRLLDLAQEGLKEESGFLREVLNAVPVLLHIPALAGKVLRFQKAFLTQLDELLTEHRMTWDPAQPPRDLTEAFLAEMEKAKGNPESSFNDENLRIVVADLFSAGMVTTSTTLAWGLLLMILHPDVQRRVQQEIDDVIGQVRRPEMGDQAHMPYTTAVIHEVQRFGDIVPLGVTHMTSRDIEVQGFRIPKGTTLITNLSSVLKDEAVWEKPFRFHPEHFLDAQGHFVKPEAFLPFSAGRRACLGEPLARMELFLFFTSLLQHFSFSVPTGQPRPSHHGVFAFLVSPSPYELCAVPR

[1] = Luminescence Cell-Based Dose Response HTS to Identify Activators of Luciferase Translation or Activity in H4 […] Cells. [Related pubchem assays: 1829 (Project Summary), 1814 (Primary HTS)]; assay type: functional
H4 = test: Luminescence Cell-Based Dose Response HTS to Identify Activators of 5'UTR Stem-Loop Driven Prion Protein mRNA Translation in H4 Neuroglioblastoma Cells. [Related pubchem assays: 1829 (Project Summary), 1814 (Primary HTS)]; assay type: functional; conditions: Homo sapiens
[2] = Luminescence Cell-Based Dose Confirmation HTS to Identify Activators of 5'UTR Stem-Loop Driven Alpha-Synuclein mRNA Translation in H4 Neuroglioblastoma Cells. [Related pubchem assays: 1829 (Project Summary), 1814 (Primary HTS)]; assay type: functional
Cytochrome P450 3A4 = Cytochrome P450 3A4 (Homo sapiens, UniProt P08684);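 also: CYP3A4 tested as one member of a cytochrome P450 panel screen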
Chain of Cytochrome P450 3A4 (P08684 whole entry): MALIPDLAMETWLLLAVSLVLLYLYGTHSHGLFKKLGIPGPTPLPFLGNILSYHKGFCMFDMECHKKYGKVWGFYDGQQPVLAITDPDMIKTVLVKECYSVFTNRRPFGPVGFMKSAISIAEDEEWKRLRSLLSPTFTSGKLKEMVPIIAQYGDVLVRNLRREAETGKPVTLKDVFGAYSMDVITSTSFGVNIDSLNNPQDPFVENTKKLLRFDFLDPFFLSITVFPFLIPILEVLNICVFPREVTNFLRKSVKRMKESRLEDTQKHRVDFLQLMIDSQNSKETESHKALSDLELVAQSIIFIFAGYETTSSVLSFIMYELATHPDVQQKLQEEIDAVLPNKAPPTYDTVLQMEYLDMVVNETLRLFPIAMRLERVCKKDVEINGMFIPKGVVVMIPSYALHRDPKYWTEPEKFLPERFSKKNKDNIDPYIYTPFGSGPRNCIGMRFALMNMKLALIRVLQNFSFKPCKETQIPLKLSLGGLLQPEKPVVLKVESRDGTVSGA

[3] = molecular target: T2, Heat shock factor protein 1 (Mus musculus, UniProt P38532); test: inhibition of MG132-induced HSE-luciferase signal, confirmation, cell-based, NIH3T3, luminescence, dose retest (AID 2382); assay type: functional;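 also: NIH3T3 fibroblasts with HSF1-driven luciferase reporter stressed by proteasome inhibitor MG132; luminescence from HSF1-driven luciferase expression after 8 hours of MG132 stress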
T2 sequence (P38532 whole entry): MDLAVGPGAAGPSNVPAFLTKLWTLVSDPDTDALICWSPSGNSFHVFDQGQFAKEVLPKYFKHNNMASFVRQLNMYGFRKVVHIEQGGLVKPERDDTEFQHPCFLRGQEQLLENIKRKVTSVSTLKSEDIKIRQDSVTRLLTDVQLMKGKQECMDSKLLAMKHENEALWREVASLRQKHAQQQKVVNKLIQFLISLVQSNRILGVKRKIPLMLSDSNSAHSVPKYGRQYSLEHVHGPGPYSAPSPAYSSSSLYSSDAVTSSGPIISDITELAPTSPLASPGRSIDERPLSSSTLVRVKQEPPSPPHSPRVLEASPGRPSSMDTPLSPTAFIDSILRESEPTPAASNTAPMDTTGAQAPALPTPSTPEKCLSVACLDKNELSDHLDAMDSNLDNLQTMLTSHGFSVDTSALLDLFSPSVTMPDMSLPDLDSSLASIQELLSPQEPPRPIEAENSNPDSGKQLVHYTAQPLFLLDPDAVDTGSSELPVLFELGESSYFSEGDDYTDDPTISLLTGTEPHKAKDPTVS

Chain of Cytochrome P450 2C19 (P33261 whole entry): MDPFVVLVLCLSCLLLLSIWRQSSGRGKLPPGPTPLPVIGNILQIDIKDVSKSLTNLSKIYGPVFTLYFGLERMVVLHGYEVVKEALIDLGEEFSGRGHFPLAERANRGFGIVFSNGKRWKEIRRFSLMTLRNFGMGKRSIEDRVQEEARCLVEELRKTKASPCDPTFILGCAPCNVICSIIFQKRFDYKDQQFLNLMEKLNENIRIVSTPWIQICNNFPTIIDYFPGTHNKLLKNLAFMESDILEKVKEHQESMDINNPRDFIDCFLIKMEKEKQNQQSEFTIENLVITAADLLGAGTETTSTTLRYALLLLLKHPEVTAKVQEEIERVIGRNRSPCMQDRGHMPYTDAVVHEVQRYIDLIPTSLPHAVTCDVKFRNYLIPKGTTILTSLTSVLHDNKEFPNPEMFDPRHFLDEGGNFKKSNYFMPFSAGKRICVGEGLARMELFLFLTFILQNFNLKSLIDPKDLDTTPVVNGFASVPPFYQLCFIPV

Cc1ncc(CSC(=N)N)n1Cc1ccccc1
AC50 (Cytochrome P450 2C19; read-out: AC50): 7.94 µM (inconclusive)

N[C@@H](C(=O)O)c1ccc(P(=O)(O)O)cc1
AC50 (Cytochrome P450 1A2): 20 µM (inconclusive) | AC50 (Cytochrome P450 2C9): 31.6 µM (inconclusive)

O=C(O)[C@H]1CN[C@H](C(=O)O)C1
AC50 (Cytochrome P450 1A2): 31.6 µM (inconclusive) | AC50 (Cytochrome P450 2D6): 39.8 µM (inconclusive) | AC50 (Cytochrome P450 2C19): inconclusive

CCCC(=O)Nc1c(C)n[nH]c1C
AC50 (Cytochrome P450 2C19; read-out: AC50): 3.98 µM (inconclusive)

Cc1cccc(OCCOC(=O)c2c(-c3ccccc3)noc2C)c1
EC50 [1]: 62 µM (active) | EC50 (H4): > 120 µM (not active) | EC50 [2]: > 120 µM (not active)

CCSc1ccc2c(c1)N(CCCN1CCN(C)CC1)c1ccccc1S2
AC50 (Cytochrome P450 3A4): 10 µM (inconclusive) | AC50 (Cytochrome P450 2C19; read-out: AC50): 3.16 µM (inconclusive)

COc1ccc2c(c1O)-c1cccc3c1[C@H](C2)N(C)CC3
AC50 (Cytochrome P450 3A4): 15.8 µM (inconclusive) | AC50 (Cytochrome P450 2D6): 31.6 µM (inconclusive) | AC50 (Cytochrome P450 2C19; read-out: AC50): 7.94 µM (inconclusive)

CCOC(=O)Nc1nc(-c2ccccc2)c(C)s1
AC50 (Cytochrome P450 2C9): 7.94 µM (inconclusive) | AC50 (Cytochrome P450 2C19; read-out: AC50): 3.98 µM (inconclusive)

COC(=O)CCCC1=CC2=C(c3ccccc3)C(=O)C(C)(OC(=O)C3CCCC3)C(=O)C2=CN1c1ccc(OC)cc1 (configuration not stated)
EC50 [3]: > 195 µM (not active)

CCC1C(=O)n2nc(-c3ccccc3)cc2N=C1C (configuration not stated)
EC50 [1]: 6.09 µM (active) | EC50 [2]: 25.7 µM (active)

S=C(N/N=C/c1ccc(Br)cc1)N1CCCCC1
EC50 [1]: 0.174 µM (active) | EC50 (H4): 96.7 µM (active)

COc1[nH]nc2nncnc12
AC50 (Cytochrome P450 1A2): 6.31 µM (inconclusive) | AC50 (Cytochrome P450 2C19; read-out: AC50): 15.8 µM (inconclusive)

COc1cccc(-c2cccc(NC(=O)C3CCN(Cc4ccon4)CC3)c2)c1
EC50 [3]: > 195 µM (not active)

COc1ccccc1CNc1ccnc(-c2ccc(C(=O)N(C)C)cc2)n1
AC50 (Cytochrome P450 2D6): 39.8 µM (inconclusive) | AC50 (Cytochrome P450 2C19; read-out: AC50): 39.8 µM (inconclusive)

COc1ccc(C/C(C)=N/NC(=S)Nc2ccccc2F)cc1
EC50 [3]: 96.9 µM (active)

CC(=O)C1C(c2ccccc2OC(F)F)NC(=O)NC1(O)C(F)(F)F (configuration not stated)
AC50 (Cytochrome P450 1A2): 5.01 µM (inconclusive) | AC50 (Cytochrome P450 2C9): 15.8 µM (inconclusive)

COc1ccc(N2CCN(C(=O)c3cccc(Br)c3)CC2)c([N+](=O)[O-])c1
EC50 [3]: > 195 µM (not active)

COc1cc(NC(=O)n2ncc3cc(Cl)ccc32)cc(OC)c1
EC50 [1]: 17.4 µM (active) | EC50 (H4): 12.5 µM (active)

Cc1ccc(C(=O)N(CN2CCCC2=O)c2ccccc2)cc1C
AC50 (Cytochrome P450 1A2): 5.01 µM (inconclusive) | AC50 (Cytochrome P450 2C9): 0.00562 µM (inconclusive)

CC(=O)c1cc(C)ccc1OC(=O)CCN1C(=O)C2C3c4ccccc4C(c4ccccc43)C2C1=O (configuration not stated)
AC50 (Cytochrome P450 3A4): 31.6 µM (inconclusive) | AC50 (Cytochrome P450 2C19; read-out: AC50): 10 µM (inconclusive)

O=C(NC1CCCCC1)C(c1ccco1)N(C(=O)c1csnn1)c1ccc(Cl)cc1 (configuration not stated)
EC50 [3]: > 195 µM (not active)

CC(C)CC(=O)O/N=C1\C(=O)N(c2ccccc2)c2ccccc21
AC50 (Cytochrome P450 1A2): 3.55 µM (inconclusive) | AC50 (Cytochrome P450 2C9): 6.31 µM (inconclusive) | AC50 (Cytochrome P450 2C19; read-out: AC50): 5.62 µM (inconclusive)

Cc1ccccc1N1CCN(C(=O)c2ccccc2NC(=O)/C=C\C(=O)O)CC1
AC50 (Cytochrome P450 2C19; read-out: AC50): 28.2 µM (inconclusive)
